Experimental data as given in patent publication US20210069134A1 (priority 2019, published 2021).
Entries after “also recorded” stand apart in the source; their conditions may differ.

What was measured:
Type in all cases: in vivo, rat
Long Evans Hooded rats [1] = assay: Elevated Plus Maze (EPM) test after developmental Pb^2+ exposure, acute i.p. drug; details: for anxiolytic OTC ratio, sensitivity to drug / EPM track plot and group mean activity (10-min): 43 mg/kg i.p.
[2] = test system: prelimbic (PrL), infralimbic (IL), orbital ventral frontal (OV), orbital ventro-lateral (OVL), and hippocampal (HP) brain regions; assay: LC/MS GABA:Neurotransmitter and Taurine:Neurotransmitter ratios in brain sub-regions after the ASST; details: male rats, OVL (all four brain regions), taurine co-treatment
Experimental: Immediately following the ASST, rats were deeply anesthetized using Isoflurane, then sacrificed, and their brains were extracted in cold physiological buffered saline (PBS) pH 7.4 in under 2-min. The rat whole brains were then transferred into a coronal sectioning steel brain matrix for 175-300 g rodents (Stoelting, Inc. Wood Dale, Ill.). […] The collected brain regions were stored at −80° C. until ready for subsequent neurochemical assessments.
The brain sub-regions were then manually homogenized with sterile glass homogenizers (i.e., total volume 3 mL) using a 10 mg/100 μL (1:10) dilution of 100% acetonitrile ([…]) (Sigma-Aldrich, St Louis, Mo.) as a miscible (i.e., fully dissolvable solution) with a dielectric constant to study the separation of chemicals by mass charge and polarity. Post homogenization, samples were sonicated for 30 sec with a pulse on:off time of 10 sec at an amplitude of 20%, then centrifuged at […] for 5-min at 4° C., and the supernatant collected and stored at −20° C. until ready for LC/MS. […] The mass/charge (m/z) values of neurotransmitters were monitored and peak heights were obtained to compare the amount of neurotransmitters within- and between-samples. The elution was performed with a flow rate of 0.2 mL/min and the neurotransmitters that were eluted from the column were detected in the positive ion mode. […]

Long Evans Hooded rats [3] = assay: Attention Set-Shift Test (ASST) after developmental Pb^2+ exposure with taurine co-treatment; details: for Pb^2+-induced frontoexecutive dysfunctions (ASST task performance), overall: both sexes, 150 ppm Pb^2+ + 0.05% Taurine co-treatment; for errors-to-criterion (ETC), odor (OD) and digging medium (MD) simple discrimination training / trials-to-criterion (TTC), odor (OD) and digging medium (MD) simple discrimination training: vs Control and Perinatal; for rate-of-learning cumulative record across ASST stages: 150 ppm Pb^2+ + Taurine 0.05%
[4] = female rats, 150 ppm Pb^2+ + 0.05% Taurine
[5] = female rats, 150 ppm Pb^2+ + 0.05% Taurine in drinking water to PND 22
[6] = female rats, 150 ppm Pb^2+ + 0.05% Taurine, most recovery at ED and ED-Rev
[7] = male rats, 150 ppm Pb^2+ + 0.05% Taurine
[8] = male rats, 150 ppm Pb^2+ + 0.05% Taurine in drinking water to PND 22
[9] = male rats, 150 ppm Pb^2+ + 0.05% Taurine in drinking water to PND 22, listed as taurine
[10] = male rats, 150 ppm Pb^2+ + 0.05% Taurine, listed as taurine

With `NCS(=O)(=O)O` [TD-102] the “anxiolytic OTC ratio, sensitivity to drug” value (from here on “anxiolytic OTC ratio”) (Long Evans Hooded rats [1]; Peri-22 1,000 ppm females) was “sensitive”, the “anxiolytic OTC ratio” value (Long Evans Hooded rats [1]; Peri-22 1,000 ppm male rats) was “only sensitive” and the “anxiolytic OTC ratio” value (Long Evans Hooded rats [1]; control male rats) was “most sensitive”.
With `Nc1ccccc1S(=O)(=O)O` [TD-103, 2-aminobenzenesulfonic acid] the “anxiolytic OTC ratio” value (Long Evans Hooded rats [1]; control female rats) was “most sensitive”.
In the case of `NCCC(=O)O` [TD-101, 3-aminopropanoic acid], the “anxiolytic OTC ratio” value (Long Evans Hooded rats [1]; control female rats) is reported as “most sensitive” and the “anxiolytic OTC ratio” value (Long Evans Hooded rats [1]; control male rats) is reported as “most sensitive”.
For `NCCS(=O)(=O)O` [Taurine, 2-aminoethanesulfonic acid], the “Taurine:Dopamine levels” value [2] was “elevated”, the “Pb^2+-induced frontoexecutive dysfunctions (ASST task performance), overall” value (Long Evans Hooded rats [3]) was “recovered these frontoexecutive dysfunctions to levels equivalent to Control rats” and the “Pb^2+-induced frontoexecutive dysfunctions (ASST task performance), overall” value (Long Evans Hooded rats [3]; listed as taurine) was “effective in mitigating or at least reducing most; also recorded: sex-dependent recovery”. The “ETC, reacquisition learning” value (Long Evans Hooded rats [3]; [4]) was “no differences”, the “TTC, reacquisition learning” value (Long Evans Hooded rats [3]; [4]) was “no differences” and the “errors-to-criterion (ETC), OD and MD simple discrimination training” value (Long Evans Hooded rats [3]; [5]) was “no differences”. For the same compound, the “trials-to-criterion (TTC), OD and MD simple discrimination training” value (Long Evans Hooded rats [3]; [5]) was “no differences”, the “ASST performance, ETC” value (Long Evans Hooded rats [3]; [6]) was “recovered these deficits to performance levels comparative to Control males; also recorded: recovered ASST performance to rates comparable to Control female rats” and the “ASST performance, TTC” value (Long Evans Hooded rats [3]; [6]) was “recovered these deficits to performance levels comparative to Control males; also recorded: recovered ASST performance to rates comparable to Control female rats”. The “ETC, reacquisition learning (CD-Reacquisition and ID-Reacquisition)” value (Long Evans Hooded rats [3]; [7]) was “fewer ETC errors”, the “TTC, reacquisition learning (CD-Reacquisition and ID-Reacquisition)” value (Long Evans Hooded rats [3]; [7]) was “recovery from the TTC reacquisition learning impairment” and the “errors-to-criterion (ETC), odor (OD) and digging medium (MD) simple discrimination training” value (Long Evans Hooded rats [3]; [8]) was “significant difficulty in learning”. The “trials-to-criterion (TTC), odor (OD) and digging medium (MD) simple discrimination training” value (Long Evans Hooded rats [3]; [8]) was “significant difficulty in learning”, the “errors-to-criterion (ETC), odor (OD) and digging medium (MD) simple discrimination training” value (Long Evans Hooded rats [3]; [9]) was “caused learning delays” and the “trials-to-criterion (TTC), odor (OD) and digging medium (MD) simple discrimination training” value (Long Evans Hooded rats [3]; [9]) was “caused learning delays”. The “ETC, reacquisition learning (CD-Reacquisition and ID-Reacquisition)” value (Long Evans Hooded rats [3]; [10]) was “recovered reacquisition learning performance deficits to rates comparable to Control male rats”, the “TTC, reacquisition learning (CD-Reacquisition and ID-Reacquisition)” value (Long Evans Hooded rats [3]; [10]) was “recovered reacquisition learning performance deficits to rates comparable to Control male rats” and the “ASST performance, ETC” value (Long Evans Hooded rats [3]; male rats, 150 ppm Pb^2+ + 0.05% Taurine, most recovery at CD-Rev and ID) was “recovered these deficits to performance levels comparative to Control males; also recorded: recovered ASST performance to rates comparable to Control male rats”. The “ASST performance, TTC” value (Long Evans Hooded rats [3]; male rats, 150 ppm Pb^2+ + 0.05% Taurine, most recovery at CD-Rev, ID, ED) was “recovered these deficits to performance levels comparative to Control males; also recorded: recovered ASST performance to rates comparable to Control male rats”, the “rate-of-learning cumulative record across ASST stages” value (Long Evans Hooded rats [3]; single representative female rat) was “quicker rate-of-learning with less sequential errors” and the “rate-of-learning cumulative record across ASST stages” value (Long Evans Hooded rats [3]; single representative female rat, listed as taurine) was “significant improvements”. The “rate-of-learning cumulative record across ASST stages” value (Long Evans Hooded rats [3]; single representative male rat) was “quicker rate-of-learning with less sequential errors”, the “rate-of-learning cumulative record across ASST stages” value (Long Evans Hooded rats [3]; single representative male rat, listed as taurine) was “significant improvements” and the “Pb^2+-induced anxiogenic response in the EPM” value (Long Evans Hooded rats [1]; 43 mg/Kg i.p. 15-min prior to testing, PND 36-45, both genders) was “ameliorated in a gender-specific manner”. The “EPM track plot and group mean activity (10-min)” value (Long Evans Hooded rats [1]; Control (0 ppm) female rats) was “increased anxiolytic response” and the “EPM track plot and group mean activity (10-min)” value (Long Evans Hooded rats [1]; Control (0 ppm) male rats) was “increased anxiolytic response”.
